Where “and” joins values, the source holds several entries; their conditions need not be identical. Identical values can stand only once. Like-named read-outs stand apart in the source and are kept apart here.
Experiment: C-7 plasma pharmacokinetics after single oral administration
Type: in vivo, human
Description: The C-7 PK parameters were determined in plasma using non-compartmental methods using WinNonlin Pro (Version 5.2), as detailed in Table 3.
Biofluid concentrations were expressed in mass per volume units (ng/mL). All C-7 and AEDs concentrations below LLOQ were reported as zero in the concentration data listings. Concentrations below LLOQ were treated as zero in summary statistics of concentration data as well as for calculation of C-7 PK parameters. A geometric mean was not reported whenever at least one concentration was below the LLOQ (i.e. zero). Missing data were labeled as such and no imputation methods were used.
Terminal elimination rate constant (lambda_z) was calculated as the slope of the linear regression of the terminal phase of the logarithmic concentration-time profile for each individual dataset available. A minimum of three time points was used for determining lambda_z. Regression was performed without weighting, and a minimum value of 0.75 for Rsq_adjusted was necessary for acceptance.
The different areas under the concentration-time curve were calculated using the linear trapezoidal summation (both ascending and descending phase).
Descriptive statistics of pharmacokinetic parameters included mean, SD, and CV, minimum and maximum. The geometric mean was identified when presented. A range of values were presented for selected variables. Since Tmax is generally evaluated by a nonparametric method, median values and ranges were provided.
The patients received the study medication in the morning between 8:00 h and 9:00 h, at least 30 minutes after a light breakfast had been completed.

[1] = Cohort I, C-7 50 mg, individual patients
[2] = Cohort II, C-7 100 mg, individual patients
[3] = Cohort III, C-7 15 mg, individual patients
[4] = patients with PSE (after light breakfast) vs healthy volunteer study (fasted)

Which AUC0-24 h [1] does the source give for `CC(C)c1cc2[nH]c(=O)n(NS(C)(=O)=O)c(=O)c2cc1-c1ccnn1C` [Compound C-7, N-[7-Isopropyl-6-(2-methyl-2H-pyrazol-3-yl)-2,4-dioxo-1,4-dihydro-2H-quinazolin-3-yl]-methanesulfonamide] here?
Its AUC0-24 h is 9838 ng·h/mL and 12564 ng·h/mL and 14162 ng·h/mL and 7043 ng·h/mL.

What about the Cmax [1] of the same compound?
The Cmax was 1910 ng/mL and 2140 ng/mL and 2800 ng/mL and 1410 ng/mL.

What about the Tmax [1] of the same compound?
The Tmax was 2.00 h and 2.92 h and 3.98 h and 3.87 h.

What about the AUC0-24 h [2] of the same compound?
Its AUC0-24 h is 17924 ng·h/mL and 13877 ng·h/mL.

And the Cmax [2]?
The Cmax was 3470 ng/mL and 2950 ng/mL.

What about the Tmax [2] of the same compound?
Its Tmax is 2.88 h and 2.00 h.

What about the AUC0-24 h [3] of the same compound?
Its AUC0-24 h is 2906 ng·h/mL and 3878 ng·h/mL.

What about the Cmax [3] of the same compound?
Its Cmax is 634 ng/mL and 701 ng/mL.

And the Tmax [3]?
Its Tmax is 4.00 h and 1.97 h.

What about the AUC(0-t) (human, plasma, oral, 15 mg, Cohort III, C-7 15 mg, individual patients, read-out: AUC0-24 h) of the same compound?
Its AUC(0-t) is 4270 ng·h/mL.

What about the Cmax (human, plasma, oral, 15 mg, Cohort III, C-7 15 mg, individual patients, read-out: Cmax) of the same compound?
The Cmax was 581 ng/mL.

And the Cmax (human, plasma, oral, 50 mg, Cohort I, C-7 50 mg, individual patients, read-out: Cmax)?
The Cmax was 1530 ng/mL.

What about the Tmax (human, plasma, oral, 50 mg, Cohort I, C-7 50 mg, individual patients, read-out: Tmax) of the same compound?
Its Tmax is 3 h.

What about the AUC(0-t) (human, plasma, oral, 100 mg, Cohort II, C-7 100 mg, individual patients, read-out: AUC0-24 h) of the same compound?
The AUC(0-t) was 21300 ng·h/mL.

And the Cmax (human, plasma, oral, 100 mg, Cohort II, C-7 100 mg, individual patients, read-out: Cmax)?
The Cmax was 3700 ng/mL.

And the Tmax (human, plasma, oral, 100 mg, Cohort II, C-7 100 mg, individual patients, read-out: Tmax)?
Its Tmax is 3 h.

What about the AUC(0-t) (human, plasma, po, 15 mg, plasma, single oral 15 mg, Cohort III, n = 3, geometric mean [% CV geo mean], read-out: AUC0-6 hr) of the same compound?
The AUC(0-t) was 2130 ng·h/mL.

And the AUC(0-t) (human, plasma, po, 15 mg, plasma, single oral 15 mg, Cohort III, n = 3, geometric mean [% CV geo mean], read-out: AUC0-24 hr)?
The AUC(0-t) was 3640 ng·h/mL.

And the AUC(0-t) (human, plasma, po, 15 mg, plasma, single oral 15 mg, Cohort III, n = 3, geometric mean [% CV geo mean], read-out: AUClast)?
Its AUC(0-t) is 3660 ng·h/mL.

And the Cmax (human, plasma, po, 15 mg, plasma, single oral 15 mg, Cohort III, n = 3, geometric mean [% CV geo mean], read-out: Cmax)?
Its Cmax is 637 ng/mL.

What about the Tmax (human, plasma, po, 15 mg, plasma, single oral 15 mg, Cohort III, n = 3, median (min-max), read-out: Tmax) of the same compound?
Its Tmax is 2.98 h.

What about the AUC(0-t) (human, plasma, po, 50 mg, plasma, single oral 50 mg, Cohort I, n = 6, geometric mean [% CV geo mean], read-out: AUC0-6 hr) of the same compound?
The AUC(0-t) was 6790 ng·h/mL.

What about the AUC(0-t) (human, plasma, po, 50 mg, plasma, single oral 50 mg, Cohort I, n = 6, geometric mean [% CV geo mean], read-out: AUC0-24 hr) of the same compound?
The AUC(0-t) was 10600 ng·h/mL.

What about the AUC(0-t) (human, plasma, po, 50 mg, plasma, single oral 50 mg, Cohort I, n = 6, geometric mean [% CV geo mean], read-out: AUClast) of the same compound?
Its AUC(0-t) is 10700 ng·h/mL.

And the Cmax (human, plasma, po, 50 mg, plasma, single oral 50 mg, Cohort I, n = 6, geometric mean [% CV geo mean], read-out: Cmax)?
The Cmax was 1990 ng/mL.

What about the Tmax (human, plasma, po, 50 mg, plasma, single oral 50 mg, Cohort I, n = 6, median (min-max), read-out: Tmax) of the same compound?
Its Tmax is 2.96 h.

And the AUC(0-t) (human, plasma, po, 100 mg, plasma, single oral 100 mg, Cohort II, n = 4, geometric mean [% CV geo mean], read-out: AUC0-6 hr)?
The AUC(0-t) was 10200 ng·h/mL.

And the AUC(0-t) (human, plasma, po, 100 mg, plasma, single oral 100 mg, Cohort II, n = 4, geometric mean [% CV geo mean], read-out: AUC0-24 hr)?
The AUC(0-t) was 16900 ng·h/mL.

What about the AUC(0-t) (human, plasma, po, 100 mg, plasma, single oral 100 mg, Cohort II, n = 4, geometric mean [% CV geo mean], read-out: AUClast) of the same compound?
The AUC(0-t) was 17000 ng·h/mL.

What about the Cmax (human, plasma, po, 100 mg, plasma, single oral 100 mg, Cohort II, n = 4, geometric mean [% CV geo mean], read-out: Cmax) of the same compound?
Its Cmax is 2980 ng/mL.

What about the Tmax (human, plasma, po, 100 mg, plasma, single oral 100 mg, Cohort II, n = 4, median (min-max), read-out: Tmax) of the same compound?
The Tmax was 2.94 h.

What about the “mean AUClast in patients higher than in healthy male subjects” value [4] of the same compound?
The value was 10-40%.

What about the “mean Cmax in patients higher than in healthy male subjects” value [4] of the same compound?
The value was 10-20%.

And the Tlag (plasma, single oral 15 mg, Cohort III, n = 3, median (min-max))?
Its Tlag is 0.00 (0.00-0.00) hr.

What about the Tlag (plasma, single oral 50 mg, Cohort I, n = 6, median (min-max)) of the same compound?
The Tlag was 0.00 (0.00-0.00) hr.

What about the Tlag (plasma, single oral 100 mg, Cohort II, n = 4, median (min-max)) of the same compound?
The Tlag was 0.00 (0.00-0.00) hr.

What about the “earliest time C-7 measurable in plasma” value (single 15, 50 or 100 mg dose) of the same compound?
Its value is 0.25 h post-dose.

And the “time of peak plasma concentration (median)” value (single 15, 50 or 100 mg dose)?
The value was “around 3 h post-dose”.

What about the “time of peak plasma concentration, maximum in individual patients” value (single 15, 50 or 100 mg dose) of the same compound?
The value was 4 h.

And the “time of peak plasma concentration, minimum in individual patients” value (single 15, 50 or 100 mg dose)?
Its value is “approximately 2 h”.

From patent US20140163050A1, “Use of 1H-quinazoline-2,4-diones” (priority 2011, published 2014)
